Source: US6660251B1, “Galenic formulation containing biotin” (Merck Patent GmbH, priority 1999, dated 2003)

Columns and labels:
[1] = Penetration investigations on human skin ex vivo (FRANZ diffusion cell, 14C-biotin); assay type: in vitro ADME
From the text: To characterize the penetration behavior of biotin from different emulsions in excised human skin, FRANZ's diffusion cell is chosen as an in-vitro model. The selection of the model is based on the experience of the authors, who were able to detect correlating results between the in-vitro data of the model and the in-vivo results (R. J. Feldmann, et al. (1970): Absorption of some organic compounds through the skin in man. J. Invest. Dermatol. 54: 399-404: T. J. Franz (1975): Percutaneous absorption. On the relevance of in vitro data. J. Invest. Dermatol. 64: 190-195). The basic unit of the FRANZ diffusion cell consists of a double-walled, temperature-controllable glass section. The acceptor liquid which is continuously kept in the homogeneous state by stirring is situated therein. In direct contact with the acceptor is the sample material on a gauze, which is stabilized by a glass ring and a metal clamp. A glass cover functions as evaporation protection for the upkeep of largely constant hydration conditions during the investigation period. […] It is determined quantitatively in fractionation of the detachments in pairs (10×2). […] Following this, the samples are measured in the liquid scintillation counter with addition of two blank values. […]

[2] = system: native human keratinocytes; test: Investigations on the lipid (fatty acid) content of native human keratinocytes under biotin; assay type: cell-based; settings: under the action of biotin
Method: HaCaT cells (human adult low-calcium high-temperature keratinocytes) and native human keratinocytes are cultured in Gibco's keratinocyte serum-free medium (SFM) with addition of BPE (25 μg/ml bovine hypophysis extract) and rEGF (0.1-0.2 ng/ml, recombinant epidermal growth factor) in 5% strength CO2 atmosphere (pH 7.2-7.4) at 36.6° C. in the low-calcium status (0.09 mM) in culture flasks (1 million cells/20 ml of SFM) and treated with the biotin solution (biotin dissolved in buffer according to McIloaine; medium concentration 10^−7-10^−3 mol/l and solvent control) on the 3rd day after sowing. On the 6th day, the confluent monolayer is harvested and the samples are prepared, individual pellets up to 3 million cells each being used for the lipid extraction and for the protein determination. […]
(§1) The lipid film is taken up in 4 ml of methanol (gradient grade for HPLC) and analyzed via GC-MS.
The extracted lipids of the keratinocytes are analyzed as methanolic solutions via GC-MS in order to quantify the fatty acids contained therein. […]
(§2) The protein content of the cells is determined according to the Lowry method using the protein assay kit. After preparation according to the procedure for the kit (P 5656), the measurement was carried out on an absorption reader at 690 nm.

skin of old people = settings: cited from earlier work
[3] = cited from earlier work
HaCaT keratinocytes = test: Investigations on the lipid (fatty acid) content of HaCaT keratinocytes under biotin; assay type: cell-based, human
Method: HaCaT cells (human adult low-calcium high-temperature keratinocytes) and native human keratinocytes are cultured in Gibco's keratinocyte serum-free medium (SFM) with addition of BPE (25 μg/ml bovine hypophysis extract) and rEGF (0.1-0.2 ng/ml, recombinant epidermal growth factor) in 5% strength CO2 atmosphere (pH 7.2-7.4) at 36.6° C. in the low-calcium status (0.09 mM) in culture flasks (1 million cells/20 ml of SFM) and treated with the biotin solution (biotin dissolved in buffer according to McIloaine; medium concentration 10^−7-10^−3 mol/l and solvent control) on the 3rd day after sowing. On the 6th day, the confluent monolayer is harvested and the samples are prepared, individual pellets up to 3 million cells each being used for the lipid extraction and for the protein determination.
The cells are extracted following the lipid extraction of Bligh and Dyer (B. E. Bligh et al. (1959) A rapid method of total lipid extraction and purification. Can. J. Biochem. Physiol. 37: 911-917). For this, the cell pellet is treated with 20 ml of a solvent mixture (chloroform: methanol=2:1), homogenized with stirring and extracted with shaking in the dark for 30 min. It is then filtered through a sterile filter and the extract is concentrated on a vacuum rotary evaporator.
as §1
The extracted lipids of the keratinocytes are analyzed as methanolic solutions via GC-MS in order to quantify the fatty acids contained therein. 100 μl of the solution are reacted with 1 μl each of 0.2 M trimethylsulfionium hydroxide to give methyl esters in order to improve the evaporability.
as §2
The results of the influence of biotin on the fatty acid content of HaCaT keratinocytes are shown in FIGS. 1 to 4 for various concentrations of biotin (dissolved in buffer according to McIloaine). As control, the fatty acid content of the HaCaT keratinocytes after corresponding action of the buffer without biotin is moreover shown in FIGS. 1 to 4. The contents of the fatty acids myristic acid (MA), palmitic acid (PA), stearic acid (SA), oleic acid (OS) and linoleic acid (LA) are shown based on the protein content of the cells.

O=C(O)CCCCC1SCC2NC(=O)NC21 (stereo not drawn) [biotin, hexahydro-2-oxiothieno [3,4-d]imidazole-4-valeric acid]
penetration of biotin through the horny layer of the human skin [1]: does not penetrate or does not penetrate in an efficacious concentration
concentration of linoleic acid (LA) [2]: absence of an increase
concentration of the fatty acids myristic acid (MA), palmitic acid (PA), stearic acid (SA) and oleic acid (OA) [2]: Increases
epithelial and histopathological changes in the areas treated (skin of old people; in vivo): not possible to show any epithelial and histopathological changes at all
development of wrinkles on the skin of old people (skin of old people; topically applied formulations, biotin content 0.25% and 0.50%): visible reduction
efficacy in soft, brittle and splitting nails, different forms of alopecia and atopic and seborrheic dermatitis ([3]; continuous biotin therapy): possible to show the efficacy
side effects ([3]; in vivo): no side effects at all
concentration of linoleic acid (LA) (HaCaT keratinocytes; HaCaT keratinocytes, under the action of biotin): absence of an increase
lipid synthesis power of keratinocytes (HaCaT keratinocytes; biotin concentration in the medium 10^−5 to 10^−3 mol/l): increased
lipid synthesis power of keratinocytes (HaCaT keratinocytes; biotin concentration in the medium 10^−6 mol/l): inefficacious
concentration of the fatty acids myristic acid (MA), palmitic acid (PA), stearic acid (SA) and oleic acid (OA) (HaCaT keratinocytes; culture of HaCaT keratinocytes, under the action of biotin): Increases
effective biotin concentration (HaCaT keratinocytes; stimulation of lipid synthesis, from FIG. 2): 10^−5 mol/l
